Experimental data as given in patent publication US9296748B2, “Pyridinones” (Boehringer Ingelheim International GmbH, priority 2013, dated 2016).

Biological target: BRD4-BD1 (Homo sapiens (Human), UniProt O60885)
Assay: BRD4-H4 Tetraacetylated Peptide Inhibition AlphaScreen
Format: binding
Conditions: GST-BRD4-BD1 (aa 44-168), biotinylated Acetyl-Histone H4 peptide
Protocol: Compounds are diluted in serial dilution 1:5 in assay buffer from 10 mM stock in DMSO (100 μM start concentration) in white OptiPlate-384 (PerkinElmer). […] Subsequently, 6 μl of premixed AlphaLISA Glutathione Acceptor Beads and AlphaScreen Streptavidin Donor Beads from PerkinElmer (in assay buffer at a concentration of 10 μg/ml each) are added and the samples are incubated for 30 min at RT in the dark (shaking 300 rpm). Afterwards, the signal is measured in a PerkinElmer Envision HTS Multilabel Reader using the AlphaScreen protocol from PerkinElmer. […] Negative control values are entered as low basis value when using the software GraphPad Prism for calculations. Furthermore, a positive control (probe molecule JQ1+ with protein/peptide mix) is pipetted. Determination of IC50 values are carried out using GraphPad Prism 3.03 software (or updates thereof).

SMILES | IC50
COC[C@H](C)n1c(-c2cc(C)c(=O)n(C)n2)nc2cnc(N3CCOC[C@@H]3C)cc21 [II-30] | 0.062 µM
Cc1cc(-c2nc3cnc(N4CCOC[C@@H]4C)cc3n2[C@@H](C)c2ccccc2)cn(C)c1=O [II-31] | 0.04 µM
Cn1cc(-c2nc3cnc(N4CCOCC4)cc3n2Cc2ccccc2)cc(Cl)c1=O [II-32] | 0.105 µM
Cc1cc(-c2nc3cnc(C(C)C)cc3n2[C@@H](C)c2ccccn2)cn(C)c1=O [II-33] | 0.169 µM
Cc1cc(-c2nc3cnc(C4CCOCC4)cc3n2[C@@H](C)c2ccccn2)cn(C)c1=O [II-34] | 0.12 µM
Cc1cc(-c2nc3cnc(C4=CCOCC4)cc3n2C(C)c2ccccn2)cn(C)c1=O (stereo not shown) [II-35] | 0.211 µM
Cc1cc(-c2nc3cnc(Cl)cc3n2C(C)c2ccccn2)cn(C)c1=O (stereo not shown) [II-36] | 0.65 µM
Cc1cc(-c2nc3cnc(N4CCOCC4)cc3n2C(C)c2ccccn2)cn(C)c1=O (stereo not shown) [II-37] | 0.172 µM
Cc1cc(-c2nc3cnc(OC(C)C)cc3n2[C@@H](C)c2ccccn2)cn(C)c1=O [II-38] | 0.205 µM
Cc1cc(-c2nc3cnc(OC4CCOC4)cc3n2[C@@H](C)c2ccccn2)cn(C)c1=O (stereo partly shown) [II-39] | 0.211 µM
Cc1cc(-c2nc3cnc(C4=CCCCO4)cc3n2C(C)c2ccccn2)cn(C)c1=O (stereo not shown) [II-40] | 0.295 µM
Cc1c(-c2nc3cnc(N4CCN(C)CC4)cc3n2Cc2ccccc2)cn(C)c(=O)c1C [II-41] | 1.2 µM
Cc1cc(-c2nc3cnc(N)cc3n2[C@@H](C)c2ccccc2)cn(C)c1=O [II-42] | 0.035 µM
Cc1cc(-c2nc3cnc(N4CCOC[C@@H]4C)cc3n2C(C)CC2CC2)cn(C)c1=O (stereo partly shown) [II-43] | 0.05 µM
CCOc1cc(=O)n(C)cc1-c1nc2cnc(C3CCOCC3)cc2n1[C@@H](C)c1ccccc1 [II-44] | 0.188 µM
Cc1cc(-c2nc3cnc(C4CCOCC4)cc3n2[C@H](C)c2ccccc2)cn(C)c1=O [II-45] | 0.095 µM
CN1CCN(c2ccc3nc(-c4ccc(=O)n(C)c4)n(Cc4ccccc4)c3n2)CC1 [III-1, 5-[3-Benzyl-5-(4-methyl-piperazin-1-yl)-3H-imidazo[4,5-b]pyridin-2-yl]-1-methyl-1H-pyridin-2-one] | 0.697 µM
Cn1cc(-c2nc3cccnc3n2Cc2ccccc2)ccc1=O [III-2] | 1.78 µM
Cc1cc(-c2nc3cccnc3n2Cc2ccccc2)cn(C)c1=O [III-3] | 0.045 µM
Cc1cc(-c2nc3ccc(OC(C)C)nc3n2[C@@H](C)c2ccccn2)nn(C)c1=O [III-4] | 0.118 µM

SMILES | IC50
Cc1cc(-c2nc3ccc(OC(C)C)nc3n2[C@@H](C)c2ccccc2)nn(C)c1=O [III-5] | 0.117 µM
CCCOc1ccc2nc(-c3cc(C)c(=O)n(C)c3)n([C@@H](C)c3ccccc3)c2n1 [III-6] | 0.108 µM
Cc1cc(-c2nc3ccc(OC(C)C)nc3n2C(C)c2ccccn2)cn(C)c1=O (stereo not shown) [III-7] | 0.22 µM
Cc1cc(-c2nc3ccc(OC4CCN(C)CC4)nc3n2C(C)c2ccccn2)cn(C)c1=O (stereo not shown) [III-9] | 0.217 µM
Cc1cc(-c2nc3ncccc3n2Cc2ccccc2)cn(C)c1=O [IV-1] | 0.313 µM
CC1CC(=O)NN=C1c1ccc2c(c1)nc(-c1ccc(=O)n(C)c1)n2Cc1ccccc1 (stereo not shown) [IV-2] | 0.218 µM
Cc1cc(-c2nc3cc(Cl)cnc3n2Cc2ccccc2)cn(C)c1=O [IV-3] | 0.188 µM
Cc1cc(-c2nc3ccncc3n2Cc2ccccc2)cn(C)c1=O [IV-4] | 0.06 µM
Cc1cc(-c2nc3cc(N4CCOCC4)cnc3n2Cc2ccccc2)cn(C)c1=O [IV-5] | 0.032 µM
Cc1cc(-c2nc3cc(N4CCN(C)CC4)cnc3n2Cc2ccccc2)cn(C)c1=O [IV-6] | 0.023 µM
Cc1cc(-c2nc3cc(C4CCOCC4)cnc3n2Cc2ccccc2)cn(C)c1=O [IV-7] | 0.016 µM
Cc1cnc2c(c1)nc(-c1cc(C)c(=O)n(C)c1)n2Cc1ccccc1 [IV-8] | 0.07 µM
Cc1cc(-c2nc3cc(S(=O)(=O)N(C)C)cnc3n2Cc2ccccc2)cn(C)c1=O [IV-9] | 0.119 µM
Cc1cc(-c2nc3cccc(C)c3n2Cc2ccccn2)cn(C)c1=O [IV-10] | 0.109 µM
Cc1cc(-c2nc3cnc(N4CCOC[C@@H]4C)nc3n2[C@@H](C)c2ccccc2)cn(C)c1=O [IV-11] | 0.012 µM
Cc1cc(-c2nc3cc(N)cnc3n2Cc2ccccc2)cn(C)c1=O [IV-12] | 0.038 µM
Cc1cc(-c2nc3cc(Cl)c(Cl)cc3n2Cc2ccc(Cl)c(Cl)c2)cn(C)c1=O [IV-13] | 4.81 µM
Cc1cc(-c2nc3cnc(N4CCOCC4)nc3n2Cc2ccccc2)cn(C)c1=O [IV-14] | 0.05 µM
Cc1cc(-c2nc3cnc(N4CCOCC4)nc3n2[C@@H](C)c2ccccc2)cn(C)c1=O [IV-15] | 0.017 µM
CNc1cc(-c2nc3ccccc3n2Cc2ccccc2)cn(C)c1=O [VI-1, 5-(1-benzyl-1H-1,3-benzodiazol-2-yl)-1-methyl-3-(methylamino)-1,2-dihydropyridin-2-one] | 0.136 µM
